Experimental data from patent publication US12533362B2, “Methods for treating diseases associated with ciliopathies” (ALEXION PHARMACEUTICALS, INC., priority 2017, dated 2026).
Blank lines part the entries; values can stand above or below the compound they belong to.

Experiments:
[1] = test system: NPHP patient-derived cells; assay: automated cilia-based ciliogenesis assay in NPHP patient-derived cells; type: cell-based, human; conditions: for effect on ciliogenesis (percentage of ciliated cells) as compared with DMSO: drug screening, various tested concentrations, FIG. 5 / FIG. 6; for restoration of ciliogenesis at the highest concentration: 40 μM dinoprostone and 20 μM dmPGE2, may be due to cytotoxicity; for ciliogenesis restorative effect: FIG. 11A
Excerpt: (§1) To identify compounds for treating diseases associated with ciliopathies such as, for example, NPHP, NPHP patient-derived cells were obtained and cell lines were established. Briefly, peeled renal epithelial cells, which are mostly proximal tubule cells (tbc) recovered from urine of NPHP1-deficient patients, were immortalized by retroviral gene transfer of SV40 T antigen. Cells were fixed and fluorescence-labeled with Hoechst (for nuclei staining), anti-γ-tubulin antibody (for basal bodies staining), and anti-ARL13B antibody (for cilia staining) for detection using immunofluorescence microscopy.
(§2) Briefly, NPHP patient-derived cells and control cells were cultured in complete media, at 39C (non-permissive temperature for SV40 expression), followed by automatic cilia analysis using immunofluorescence microscopy to measure ciliogenesis, e.g., in terms of % cilia. A spinning disk platform may be used for drug screening (FIG. 5, A-J) and ciliogenesis analysis of G3 multi-OMICs dataset (FIG. 29, A-E).
(§3) The cilia-based assay described above may be used to identify compounds that restore ciliogenesis. […] Automated random acquisition of 35 images per well may be performed, for example. Each image may have z-stack of 10 images taken at <1 μm intervals.

[2] = test system: zebrafish NPHP4 MO; assay: zebrafish NPHP4 morpholino (MO) model; type: in vivo
Method: Briefly, wild-type Tg(wt1b:GFP) transgenic zebrafish embryos were injected with morpholino (e.g., nphp4 ATG MO) at one-cell stage. At 8 hours post-fertilization (hpf), injected embryos were treated with drug or vehicle in PTU-egg water (1 mL in 12-well plates). At 24 hpf, drug treatment was renewed, and pronase was added at 36 hpf for chorion removal.

[3] = pharmacokinetics study in wild type mice; conditions: intraperitoneal; taprenepag isopropyl 1 mg/kg or 8 mg/kg, taprenepag 8 mg/kg; different time points
Method: After intraperitoneal injections of taprenepag isopropyl (1 mg/kg or 8 mg/kg) or taprenepag (8 mg/kg), the concentrations of these compounds in various organs were determined at different time points.

[4] = test system: Nphp1−/− mice; assay: retinal degeneration in Nphp1−/− mouse model; type: in vivo
Method: Homozygous deletion of NPHP1 is the most common cause of juvenile nephronophthisis 1. Homozygous or compound heterozygous mutations in NPHP1 are also associated with, for example, Joubert syndrome 4 (brain abnormalities) and Senior-Løken syndrome 1 (retinopathy). NPHP1 KO animals were generated to test whether taprenepag can be used to treat these diseases. To establish a CRISPR/Cas9-engineered Nphp1^−/− mouse model, single guide RNAs were injected in C57BL/6J embryos, and generated a 76 bp deletion encompassing the ATG in exon 1 of Nphp1. To characterize the natural history of Nphp1^−/− mouse model, histochemical staining of kidney and retina sections was performed from Nphp1^+/+ and Nphp1^−/− mice.
To evaluate the retinal degeneration, a semi-automated tool was developed to provide detection and quantitative thickness measurements of each retinal layers at five distant plans manually marked on the retinal section (FIG. 38B). Semi-automated quantification analysis confirms a clear decrease in thickness of photoreceptors layers ONL, IS and OS (FIG. 38C).
To assess the effect of Nphp1 deletion on the structural organization of photoreceptors in this model, immunohistochemistry (IH) analysis was performed on retina sections from Nphp1^+/+ and Nphp1^−/− mice (FIGS. 39A and B). Tissues were fixed and fluorescence-labeled with DAPI (for nuclei staining), anti-rhodopsin antibody (for OS staining), and anti-Cep290 antibody (for connecting cilia staining) or PNA (for OS and IS staining), detected using immunofluorescence microscopy.
To assess the effect of Nphp1 deletion on the functionality of photoreceptors, electroretinogram (ERG) was performed on Nphp1^+/+ and Nphp1^−/− mice, under light stimuli of different intensities (FIGS. 40A-C). FIGS. 40A and B show ERG a- and b-waves recorded from the same animals at P21, for a given light intensity. In contrast with Nphp1^+/+ mice, Nphp1^−/− mice display drastically lower ERG amplitudes at a given intensity of light stimulus. […]

[5] = biological target: EP4 receptor (Homo sapiens, UniProt P35408); conditions: cited from earlier work
[6] = test system: control cells; assay: exogenous PGE2 effect on cilia in control cells; type: cell-based; conditions: addition of exogenous PGE2, FIG. 12
[7] = test system: control normal epithelial cells; assay: automated cilia-based ciliogenesis assay in control normal epithelial cells; type: cell-based, human; conditions: control normal cells, FIG. 11A
Excerpt: as §1, §2
as §3, with “intervals. Consecutive imaging of nucleus (Hoechst at 461 nm), basal body (γ-tubulin at 555 nm) and cilia (ARL13b at 647 nm) may be obtained.” for “intervals.”

[8] = meta-analysis, multiple NPHP patient-derived cell lines

Chain of EP4 receptor (P35408 whole entry): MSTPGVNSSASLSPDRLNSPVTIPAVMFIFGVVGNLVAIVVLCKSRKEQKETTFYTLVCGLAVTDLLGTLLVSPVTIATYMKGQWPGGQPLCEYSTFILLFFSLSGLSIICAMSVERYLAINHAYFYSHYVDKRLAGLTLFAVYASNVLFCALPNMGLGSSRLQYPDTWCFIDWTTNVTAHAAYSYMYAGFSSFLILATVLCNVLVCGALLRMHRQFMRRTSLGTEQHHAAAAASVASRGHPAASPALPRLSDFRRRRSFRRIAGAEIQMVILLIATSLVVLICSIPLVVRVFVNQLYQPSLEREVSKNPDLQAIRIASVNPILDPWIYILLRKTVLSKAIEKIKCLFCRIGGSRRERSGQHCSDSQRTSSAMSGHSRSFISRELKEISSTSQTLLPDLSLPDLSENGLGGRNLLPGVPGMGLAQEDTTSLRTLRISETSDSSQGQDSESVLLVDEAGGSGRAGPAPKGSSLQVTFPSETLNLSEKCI

- EC50 ([1]; semi-log representation of ciliogenesis titration, FIG. 16C, read-out: EC50 for EP2 from CP-544326 titration): 11 nM
- stability in vivo (concentrations in plasma, kidney, testis, retina, vitreous humor) [3]: more stable than taprenepag isopropyl
Compound: O=C(O)COc1cccc(CN(Cc2ccc(-n3cccn3)cc2)S(=O)(=O)c2cccnc2)c1 [CP-544326, taprenepag]
- ciliogenesis, dose response compared to DMSO ([1]; FIG. 16B): restores ciliogenesis in a dose-dependent manner
- ciliogenesis as compared with DMSO ([1]; cell lines 1-09-P, 1-06-P1 and 1-06-P2 derived from NPHP1(del) patients, FIG. 17C): increases ciliogenesis in multiple cell lines
- ciliogenesis, meta-analysis ([1]; compared with alprostadil, FIG. 16A): restores ciliogenesis to a similar level as alprostadil
- linear regression pooled slope value of effect on ciliogenesis [1, 8]: 1.36
- linear regression range of slope values of effect on ciliogenesis [1, 8]: 1.245 to 1.532
- % severe, mild and normal pronephric cysts ([2]; 100 nM vs DMSO, p<0.01 Fischer's exact test): significantly reduces % severe pronephric cysts and increases % mild and normal pronephric cysts
- ONL/OPL retina layers thicknesses ratio ([4]; 18 mg/kg i.p. every 3 or 4 days from P6 until P21, vs vehicle, p<0.05 Mann-Whitney test): significantly prevents the decrease of ONL/OPL ratio
- rhodopsin mislocalization (Mean Green intensity in ONL) ([4]; 18 mg/kg i.p., vs vehicle, p<0.05 unpaired t-test): significantly prevented rhodopsin mislocalization
- electroretinogram a-wave amplitude of photoreceptor response ([4]; 18 mg/kg i.p., vs vehicle-treated Nphp1−/− mice): slight improvement in the amplitude of photoreceptor response

Compound: Cc1cccc([C@@H](C)[C@H](O)/C=C/[C@@H]2[C@@H]3[C@H](C[C@H]2O)O/C(=C\CCCc2nnn[nH]2)C3(F)F)c1 [KAG-308]
- EP4 agonist potency [5]: low nanomolar EP4-agonist

Compound: O=C1CC[C@H](/C=C/[C@@H](O)C(F)(F)c2ccccc2)N1CCCCCCc1nnn[nH]1 [L902,688]
- effect on ciliogenesis ([1]; prostanoid EP4 agonist, FIG. 17A): does not significantly affect ciliogenesis

Compound: COc1ccc(C2CC(c3ccccc3)=NN2c2ccc(S(N)(=O)=O)cc2)cc1 (stereo not drawn) [ML-141]
- effect on ciliogenesis (percentage of ciliated cells) as compared with DMSO [1]: did not have a significant effect on ciliogenesis

Compound: CCCCC[C@H](O)/C=C/[C@H]1[C@H](O)CC(=O)[C@@H]1C/C=C\CCCC(=O)O [dinoprostone, prostaglandin E2]
- restoration of ciliogenesis at the highest concentration [1]: slight decrease in restoration of ciliogenesis
- ciliogenesis restorative effect [1]: ciliogenesis restorative effects similar to that of alprostadil
- % severe, mild and normal pronephric cysts ([2]; 50 μM vs DMSO, p<0.008 Fischer's exact test): significantly reduced % severe and mild pronephric cysts and increased % normal pronephric cysts
- % normal body axis curvature ([2]; 50 μM vs DMSO, p=0.0066 Fischer's exact test): significantly increases % normal body axis curvature
- dorsal curvature ([2]; 50 μM vs DMSO, p=0.0577 t-test): did not significantly affect dorsal curvature
- cilia length and percentages of ciliated cells [6]: increased both cilia length and percentages of ciliated cells
- effect on ciliogenesis [7]: no significant effect was observed

Compound: CCCCC(C)(C)[C@H](O)/C=C/[C@H]1[C@H](O)CC(=O)[C@@H]1C/C=C\CCCC(=O)O [dmPGE2, 16,16-dimethyl-PGE2]
- restoration of ciliogenesis at the highest concentration [1]: slight decrease in restoration of ciliogenesis
- ciliogenesis restorative effect [1]: ciliogenesis restorative effects similar to that of alprostadil
- effect on ciliogenesis [7]: no significant effect was observed

Compound: CCN(CC)C(C)CN1c2ccccc2Sc2ccccc21 (stereo not drawn) [ethopropazine]
- effect on ciliogenesis (percentage of ciliated cells) as compared with DMSO [1]: did not have a significant effect on ciliogenesis

Compound: O=C1c2c(O)ccc(O)c2C(=O)c2c(NCCNCCO)ccc(NCCNCCO)c21 [mitoxantrone]
- effect on ciliogenesis (percentage of ciliated cells) as compared with DMSO [1]: did not have a significant effect on ciliogenesis

Compound: CC(=O)O[C@H]1C(=O)[C@@]2(C)[C@H]([C@H](OC(=O)c3ccccc3)[C@]3(O)C[C@H](OC(=O)[C@H](O)[C@@H](NC(=O)c4ccccc4)c4ccccc4)C(C)=C1C3(C)C)[C@]1(OC(C)=O)CO[C@@H]1C[C@@H]2O [paclitaxel]
- effect on ciliogenesis (percentage of ciliated cells) as compared with DMSO [1]: did not have a significant effect on ciliogenesis

Compound: CN(C)CCC(c1ccccc1)c1ccccn1 (stereo not drawn) [pheniramine]
- effect on ciliogenesis (percentage of ciliated cells) as compared with DMSO [1]: did not have a significant effect on ciliogenesis

Compound: CN1[C@@H]2CC[C@H]1C[C@@H](OC(=O)c1c[nH]c3ccccc13)C2 [tropisetron]
- effect on ciliogenesis (percentage of ciliated cells) as compared with DMSO [1]: did not have a significant effect on ciliogenesis

Compound: COc1ccc(CCN(C)CCCC(C#N)(c2ccc(OC)c(OC)c2)C(C)C)cc1OC (stereo not drawn) [verapamil]
- effect on ciliogenesis (percentage of ciliated cells) as compared with DMSO [1]: did not have a significant effect on ciliogenesis
